# In ChEMBL document CHEMBL1201862, “PubChem BioAssay data set” (2004):
#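 Grown in 96-well plates, cells were treated for 48 hours with each compound at five concentrations. Insufficient inhibition: endpoint recorded as highest concentration tested. GI50 marks 50% less growth.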 Active and inactive are the calls of the source. No stated cut-off is given here; in the data, active = GI50 up to about 1.1 µM and inactive = higher.
# Experiments:
# Assay in all cases: growth of human tumour cells (NCI), 48 h
# CCRF-CEM = system: CCRF-CEM
# SK-MEL-2 = system: SK-MEL-2
# HCC 2998 = system: HCC 2998
# NCI-H460 = system: NCI-H460
# SW-620 = system: SW-620
# OVCAR-4 = system: OVCAR-4
# IGROV-1 = system: IGROV-1
# PC-3 = system: PC-3
# HCT-116 = system: HCT-116
# U-251 = system: U-251
# SNB-75 = system: SNB-75
# MOLT-4 = system: MOLT-4
# HL-60 = system: HL-60
# BT-549 = system: BT-549
# NCI-H23 = system: NCI-H23
# NCI/ADR-RES = system: NCI/ADR-RES
# MDA-MB-435 = system: MDA-MB-435
# A549 = system: A549
# OVCAR-8 = system: OVCAR-8
SMILES,GI50 (CCRF-CEM),GI50 (SK-MEL-2),GI50 (HCC 2998),GI50 (NCI-H460),GI50 (SW-620),GI50 (OVCAR-4),GI50 (IGROV-1),GI50 (PC-3),GI50 (HCT-116),GI50 (U-251),GI50 (SNB-75),GI50 (MOLT-4),GI50 (HL-60),GI50 (BT-549),GI50 (NCI-H23),GI50 (NCI/ADR-RES),GI50 (MDA-MB-435),GI50 (A549),GI50 (OVCAR-8)
CCOC(=O)c1c(C)n(CCN2CCN(C)CC2)c2ccc(OC)cc12,24 µM (inactive),17.6 µM (inactive),16.6 µM (inactive),48.9 µM (inactive),37.5 µM (inactive),48.6 µM (inactive),31.2 µM (inactive),34 µM (inactive),38.4 µM (inactive),31.8 µM (inactive),24.8 µM (inactive),22.6 µM (inactive),19.6 µM (inactive),45.4 µM (inactive),> 100 µM (inactive),69.7 µM (inactive),19.9 µM (inactive),> 100 µM (inactive),> 100 µM (inactive)
C[C@]12CC[C@@H]3c4cc(OCC(F)(F)F)c(O)cc4CC[C@H]3[C@@H]1CC[C@@H]2O,1.51 µM (inactive),4.55 µM (inactive),5.93 µM (inactive),1.44 µM (inactive),1.05 µM (active),17.9 µM (inactive),6.89 µM (inactive),2.28 µM (inactive),1.9 µM (inactive),2.22 µM (inactive),1.63 µM (inactive),1 µM (active),0.403 µM (active),18.4 µM (inactive),4.75 µM (inactive),2.24 µM (inactive),0.284 µM (active),5.41 µM (inactive),4.83 µM (inactive)
CC(C)(C)OC(=O)NCCNC(=O)CN(CC(=O)O)C1CCCCC1N(CC(=O)O)CC(=O)O (centres undefined),> 100 µM (inactive),> 100 µM (inactive),> 100 µM (inactive),> 100 µM (inactive),> 100 µM (inactive),> 100 µM (inactive),> 100 µM (inactive),> 100 µM (inactive),> 100 µM (inactive),> 100 µM (inactive),> 100 µM (inactive),> 100 µM (inactive),> 100 µM (inactive),> 100 µM (inactive),> 100 µM (inactive),> 100 µM (inactive),> 100 µM (inactive),> 100 µM (inactive),> 100 µM (inactive)
COc1ccc(NC(=S)N/N=C(\C)c2nc3cccnc3[nH]2)cc1,2.45 µM (inactive),16.4 µM (inactive),7.55 µM (inactive),2.94 µM (inactive),6.87 µM (inactive),4.94 µM (inactive),5.55 µM (inactive),4.48 µM (inactive),3.02 µM (inactive),3.87 µM (inactive),12.5 µM (inactive),3.41 µM (inactive),2.69 µM (inactive),4.57 µM (inactive),10 µM (inactive),6.62 µM (inactive),6.62 µM (inactive),5.53 µM (inactive),3.19 µM (inactive)
C#CC(O)/C=C/CCCCCCC#CC/C=C\CC#CCCCCCC/C=C/C(O)C#C (centres undefined),0.255 µM (active),2.99 µM (inactive),1.8 µM (inactive),4.35 µM (inactive),2.35 µM (inactive),2.57 µM (inactive),0.561 µM (active),11.6 µM (inactive),1.57 µM (inactive),12.4 µM (inactive),7.19 µM (inactive),0.111 µM (active),1.77 µM (inactive),2.86 µM (inactive),0.701 µM (active),2.55 µM (inactive),2.34 µM (inactive),2.59 µM (inactive),3.03 µM (inactive)
O=C1CSC(c2ccccc2O)N1c1ccc(Oc2ccc(Cl)cc2)c(Cl)c1 (centres undefined),17.6 µM (inactive),24.3 µM (inactive),17.7 µM (inactive),19.4 µM (inactive),31.4 µM (inactive),20.7 µM (inactive),8.91 µM (inactive),22.3 µM (inactive),15.3 µM (inactive),17.3 µM (inactive),17.6 µM (inactive),25.9 µM (inactive),16.6 µM (inactive),13.1 µM (inactive),18.1 µM (inactive),20.6 µM (inactive),21.5 µM (inactive),18.4 µM (inactive),25.5 µM (inactive)
